Measured values: article PMC11077371, “Ciliogenesis-associated Kinase 1 Promotes Breast Cancer Cell Proliferation and Chemoresistance via Phosphorylating ERK1” (International Journal of Biological Sciences, 2024)

Biological target: T1, CILK1 (Homo sapiens, UniProt Q9UPZ9)
T1 construct: purchased protein (Abcam ab101774)
T1 sequence (Q9UPZ9 1-632): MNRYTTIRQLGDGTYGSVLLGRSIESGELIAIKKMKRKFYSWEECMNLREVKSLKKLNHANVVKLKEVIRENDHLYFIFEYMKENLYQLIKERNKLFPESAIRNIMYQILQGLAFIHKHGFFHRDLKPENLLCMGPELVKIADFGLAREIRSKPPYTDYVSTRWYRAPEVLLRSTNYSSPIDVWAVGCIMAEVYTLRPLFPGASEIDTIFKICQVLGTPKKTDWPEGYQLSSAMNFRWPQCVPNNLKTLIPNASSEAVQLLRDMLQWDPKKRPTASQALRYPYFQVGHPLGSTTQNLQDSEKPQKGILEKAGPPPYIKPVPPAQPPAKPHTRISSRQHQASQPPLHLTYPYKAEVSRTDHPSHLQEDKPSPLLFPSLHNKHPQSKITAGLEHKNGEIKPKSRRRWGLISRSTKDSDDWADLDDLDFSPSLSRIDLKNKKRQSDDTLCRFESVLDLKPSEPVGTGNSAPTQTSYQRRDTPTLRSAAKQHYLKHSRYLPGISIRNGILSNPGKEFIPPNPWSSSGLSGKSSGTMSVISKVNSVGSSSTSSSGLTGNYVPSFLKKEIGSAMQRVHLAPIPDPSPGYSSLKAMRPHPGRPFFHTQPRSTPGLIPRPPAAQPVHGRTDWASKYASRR
Assay: surface plasmon resonance, […] Langmuir fit
Assay type: binding
Settings: 3D Dextran chip; 1.5625-25 μM analyte

Kd: 108 nM
Compound: CCc1ccc2nc(Nc3nc(C)c(Cc4ccc(C)cc4)c(=O)[nH]3)nc(C)c2c1 [CILK1-C30]
